Assays:
Rattus norvegicus = experiment: Antidiabetic activity against STZ-induced diabetic Sprague-Dawley rat assessed as reduction in fasting blood glucose level at 0.1 mg/kg,po for 2 months; format: functional; design: scale not given: the % may be the effect or the level left; conditions: 1460 h
Mus musculus = experiment: Antidiabetic activity against diabetic KKAy mouse model assessed as decrease in plasma glucose level at 50 mg/kg,po by glucose analyzer; format: functional; design: scale not given: the % may be the effect or the level left

| Compound | Activity (Rattus norvegicus) | Activity (Mus musculus) |
| --- | --- | --- |
| Cc1oc(-c2ccccc2)nc1CCC(=O)c1ccc(CC2SC(=O)NC2=O)cc1 (configuration not stated) [DARGLITAZONE] | 80% | – |
| Cc1c(C)c2c(c(C)c1O)CCC(C)(COc1ccc(CC3SC(=O)NC3=O)cc1)O2 (configuration not stated) [TROGLITAZONE] | – | 38.5% |

From ChEMBL document CHEMBL5260796, “Thiazolidinediones and PPAR orchestra as antidiabetic agents: From past to present” (Eur J Med Chem, 2017)
